Experimental data published in article PMC5947317 (ACS chemical biology, 2017).
pIC50: −log10 of the molar value. Where two headings read alike, the source gives them in different places. One block for each molecule: values may come before it.

How the values were obtained:
full length USP15 = biological target: T1, full length USP15 (Homo sapiens, UniProt Q9Y4E8); test: Ub-AMC selectivity assay, full length USP15; assay type: biochemical; conditions: 114 μM
T1 sequence (Q9Y4E8 1-981): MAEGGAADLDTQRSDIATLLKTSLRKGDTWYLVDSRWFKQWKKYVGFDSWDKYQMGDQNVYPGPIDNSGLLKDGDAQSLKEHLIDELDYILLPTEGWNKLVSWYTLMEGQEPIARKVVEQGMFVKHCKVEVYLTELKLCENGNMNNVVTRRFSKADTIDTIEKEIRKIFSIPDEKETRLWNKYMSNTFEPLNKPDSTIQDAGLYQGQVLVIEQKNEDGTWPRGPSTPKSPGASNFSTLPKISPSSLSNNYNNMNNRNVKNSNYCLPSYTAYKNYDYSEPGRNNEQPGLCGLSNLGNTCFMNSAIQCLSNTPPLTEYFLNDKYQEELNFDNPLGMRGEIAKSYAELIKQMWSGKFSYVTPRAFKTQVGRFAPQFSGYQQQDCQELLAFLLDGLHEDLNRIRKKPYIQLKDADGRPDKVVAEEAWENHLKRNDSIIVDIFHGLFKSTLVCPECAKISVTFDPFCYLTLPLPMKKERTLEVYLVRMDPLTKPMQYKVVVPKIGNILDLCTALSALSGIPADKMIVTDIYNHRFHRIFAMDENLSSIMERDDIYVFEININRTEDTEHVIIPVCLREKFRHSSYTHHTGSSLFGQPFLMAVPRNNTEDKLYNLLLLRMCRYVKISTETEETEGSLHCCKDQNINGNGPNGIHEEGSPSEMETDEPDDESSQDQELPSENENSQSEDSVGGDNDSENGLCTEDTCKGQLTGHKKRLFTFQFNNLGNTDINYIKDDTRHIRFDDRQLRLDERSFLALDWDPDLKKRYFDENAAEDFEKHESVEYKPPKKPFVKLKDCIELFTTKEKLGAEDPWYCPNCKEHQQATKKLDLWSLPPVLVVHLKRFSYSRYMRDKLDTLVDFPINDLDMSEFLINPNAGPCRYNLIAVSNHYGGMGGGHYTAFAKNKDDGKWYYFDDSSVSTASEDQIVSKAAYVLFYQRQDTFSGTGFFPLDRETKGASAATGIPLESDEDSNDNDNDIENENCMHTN

UCHL5 = biological target: T2, UCHL5 (Homo sapiens, UniProt Q9Y5K5); test: Ub-AMC selectivity assay, UCHL5; assay type: biochemical; conditions: 114 μM
T2 sequence (Q9Y5K5 1-329): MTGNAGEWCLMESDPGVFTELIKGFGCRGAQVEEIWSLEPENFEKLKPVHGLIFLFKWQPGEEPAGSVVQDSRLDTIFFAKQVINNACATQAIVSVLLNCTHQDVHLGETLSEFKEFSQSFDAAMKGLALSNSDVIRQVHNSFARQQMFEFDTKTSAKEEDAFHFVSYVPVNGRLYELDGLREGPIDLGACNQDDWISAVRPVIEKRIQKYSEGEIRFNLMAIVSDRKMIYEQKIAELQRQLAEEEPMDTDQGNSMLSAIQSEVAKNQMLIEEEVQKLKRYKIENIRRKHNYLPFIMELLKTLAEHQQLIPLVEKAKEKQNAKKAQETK

UCHL1 [1] = biological target: T3, UCHL1 (Homo sapiens, UniProt P09936); test: Ub-AMC assay with recombinant UCHL1; assay type: biochemical; conditions: for difference in IC50 value (selectivity for UCHL1): versus UCHL3, UCHL5, USP2 catalytic core
T3 sequence (P09936 1-223): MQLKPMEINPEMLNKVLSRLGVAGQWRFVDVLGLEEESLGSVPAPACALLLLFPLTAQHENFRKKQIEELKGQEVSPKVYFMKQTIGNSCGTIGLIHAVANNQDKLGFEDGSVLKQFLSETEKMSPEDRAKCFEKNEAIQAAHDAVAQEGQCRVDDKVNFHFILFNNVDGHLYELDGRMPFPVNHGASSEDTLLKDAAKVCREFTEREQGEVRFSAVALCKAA

UCHL3 = biological target: T4, UCHL3 (Homo sapiens, UniProt P15374); test: Ub-AMC selectivity assay, UCHL3; assay type: biochemical; conditions: 114 μM
T4 sequence (P15374 1-230): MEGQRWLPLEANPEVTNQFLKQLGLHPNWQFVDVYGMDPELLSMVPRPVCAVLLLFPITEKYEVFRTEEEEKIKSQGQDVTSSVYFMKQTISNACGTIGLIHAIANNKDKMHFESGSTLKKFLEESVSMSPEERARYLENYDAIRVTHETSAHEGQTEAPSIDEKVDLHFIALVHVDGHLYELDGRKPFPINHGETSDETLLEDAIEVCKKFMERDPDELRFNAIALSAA

HA-UCHL1 [2] = biological target: T5, HA-UCHL1 (Homo sapiens, UniProt P09936); test: AlphaLISA DUB assay miniaturized to 1536-well format; assay type: biochemical
T5 sequence (P09936 1-223): T3 sequence (P09936 1-223)

UCHL1 [3] = biological target: T3, UCHL1; test: Rapid dilution reversibility assay; assay type: biochemical; conditions: incubated at ten times IC50, diluted 100-fold; normalized to DMSO
USP2 catalytic core = biological target: T6, USP2 catalytic core (Homo sapiens, UniProt O75604); test: Ub-AMC selectivity assay, USP2 catalytic core; assay type: biochemical; conditions: 114 μM
T6 sequence (O75604 267-599 limits assumed): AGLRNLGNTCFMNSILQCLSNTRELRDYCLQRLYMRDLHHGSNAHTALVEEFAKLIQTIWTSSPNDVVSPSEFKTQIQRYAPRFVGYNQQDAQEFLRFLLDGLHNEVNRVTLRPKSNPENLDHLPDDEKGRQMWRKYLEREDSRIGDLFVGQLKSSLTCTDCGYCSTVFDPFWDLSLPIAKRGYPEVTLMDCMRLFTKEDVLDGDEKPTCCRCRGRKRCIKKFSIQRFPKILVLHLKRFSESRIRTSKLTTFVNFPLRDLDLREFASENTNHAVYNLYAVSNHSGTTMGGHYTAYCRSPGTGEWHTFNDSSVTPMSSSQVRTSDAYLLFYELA

HA-UCHL1 [4] = biological target: T5, HA-UCHL1; test: Cell lysate AlphaLISA DUB assay, 384-well format; assay type: biochemical; conditions: 384-well plate format; dose-response
UCHL1 [5] = conditions: cited from earlier work
HA-UCHL1 [6] = biological target: T5, HA-UCHL1; conditions: HEK293T cell lysates; Western blot, anti-HA
endogenous UCHL1 = biological target: T7, endogenous UCHL1 (Homo sapiens, UniProt P09936); assay type: biochemical; conditions: 100 μM and 20 μM of compound; HEK293T cell lysates
T7 sequence (P09936 1-223): T3 sequence (P09936 1-223)

inhibition at highest inhibitor concentration (full length USP15): no significant inhibition | inhibition at highest inhibitor concentration (UCHL5): no significant inhibition | pIC50 (UCHL1 [1]; Ub-AMC as substrate): 4.32 | inhibition at highest inhibitor concentration (UCHL3): no significant inhibition | pIC50 (HA-UCHL1 [2]; read-out: IC50 determined in the qHTS, qHTS, data not shown): 4.41 | recovered UCHL1 activity after rapid dilution (UCHL1 [3]): > 80% | inhibition at highest inhibitor concentration (USP2 catalytic core): no significant inhibition
Structure (SMILES): COC(=O)C1=CO[C@@H](C)[C@@H]2CN3CCc4c([nH]c5ccc(OC)cc45)[C@@H]3C[C@H]12 [(-)-aricine]

inhibition in the AlphaLISA assay (HA-UCHL1 [4]): no obvious inhibition | inhibition of UCHL1 labeling by biotin-UbVMe (HA-UCHL1 [6]): did not inhibit the labeling
Structure (SMILES): Cc1cnc(-c2ccccc2C(C)C)nc1NCc1ccc(-n2ccnn2)cc1 [ML323]
activity against UCHL1 (UCHL1 [5]): inactive

Structure (SMILES): CCN1C(=O)C=CC1=O [NEM, N-ethylmaleimide, reference compound]
recovered UCHL1 activity after rapid dilution (UCHL1 [3]): 3.9%

Structure (SMILES): CC(=O)Oc1c2c(c(CC=C(C)C)c3c1C(=O)C1=C[C@@H]4CC5C(C)(C)OC(C/C=C(\C)C(=O)O)(C4=O)[C@@]15O3)OC(C)(CCC=C(C)C)C=C2 (some centres unmarked) [acetyl isogambogic acid]
inhibition of endogenous UCHL1 labeling by HA-UbVMe (endogenous UCHL1): stronger inhibition | selectivity among UCHs and USPs tested (UCHL1 [1]; UCHL1 versus UCHL3, UCHL5, USP2 catalytic core, USP15, Ub-AMC): more promiscuous inhibitors | pIC50 (HA-UCHL1 [2]): 4.51 | recovered UCHL1 activity after rapid dilution (UCHL1 [3]): > 80%

Structure (SMILES): CC1=C(O)C(=O)C=C2C1=CC=C1[C@@]2(C)CC[C@@]2(C)[C@@H]3C[C@](C)(C(=O)O)CC[C@]3(C)CC[C@]12C [celastrol]
inhibition of endogenous UCHL1 labeling by HA-UbVMe (endogenous UCHL1): stronger inhibition | difference in IC50 value (selectivity for UCHL1) (UCHL1 [1]; USP15, Ub-AMC): ≥ 4 fold | pIC50 (HA-UCHL1 [2]): 5.35 | recovered UCHL1 activity after rapid dilution (UCHL1 [3]): > 80%

Structure (SMILES): O=c1c2cc(O)c(O)cc2oc2cc(O)c([C@@H]3O[C@H](CO)[C@@H](O)[C@H](O)[C@H]3O)c(O)c12 [mangiferin]
inhibition of endogenous UCHL1 labeling by HA-UbVMe (endogenous UCHL1): stronger inhibition | pIC50 (UCHL1 [1]): 5.05 | difference in IC50 value (selectivity for UCHL1) (UCHL1 [1]; USP15, Ub-AMC): ≥ 4 fold | pIC50 (HA-UCHL1 [2]): 5.95 | recovered UCHL1 activity after rapid dilution (UCHL1 [3]): > 80%

pIC50 (UCHL1 [1]): 4.71 | pIC50 (HA-UCHL1 [2]): 4.41
Structure (SMILES): CO[C@H]1/C=C/O[C@@]2(C)Oc3c(C)c(O)c4c(O)c(c(/C=N/N5CCN(C)CC5)c(O)c4c3C2=O)NC(=O)/C(C)=C\C=C\[C@H](C)[C@H](O)[C@@H](C)[C@@H](O)[C@@H](C)[C@H](OC(C)=O)[C@@H]1C [rifampicin, reference compound]
